Earlier results in PMC5594551, “Heterogeneous drug penetrance of veliparib and carboplatin measured in triple negative breast tumors” (Breast Cancer Research : BCR, 2017).

What was measured:
MDA-MB-436 = conditions: MDA-MB-436, BRCA1-mutated; ref [24]; cited from earlier work
HCC70 = conditions: ref [24]; cited from earlier work

O=C(c1cc(Cc2n[nH]c(=O)c3ccccc23)ccc1F)N1CCN(C(=O)C2CC2)CC1 [olaparib]
Sensitivity in vitro (MDA-MB-436): sensitivity
Sensitivity in vitro (HCC70): sensitive
